Measurements reported in US20250361253A1, “STING AGONIST COMPOUNDS” (Sutro Biopharma, Inc., priority 2022, published 2025).

How the values were obtained:
[1] = molecular target: T1, hSTING-R232 (Homo sapiens, UniProt Q86WV6, H232R); assay: ISG reporter induction in 293-Dual hSTING-R232 reporter cells (QUANTI-Blue); format: cell-based; details: 293-Dual hSTING-R232 cells, overnight incubation
T1 construct: host or cells: 293-Dual (HEK293-derived) reporter cells
Method: (§1) Certain STING compounds of the disclosure were evaluated in an in vitro cell based assay.
(§2) 293-Dual hSTING-R232 and mSTING cells (Invivogen) were seeded at 25,000 cells/well (50 ul) and co-cultured with STING agonists (2× concentration, 50 ul) in clear, half-area, 96-well polystyrene plates. Cells and test samples were prepared in DMEM supplemented with 10% FBS, Glutamax, and PenStrep. After overnight incubation at 37 C in a CO2 incubator, 20 ul of supernatant was added to QUANTI-Blue detection reagent (Invivogen). After one hour incubation at 37 C, plates were read at 640/650 nm on EnVision plate reader (PerkinElmer). OD values were plotted by log(agonist) vs. response, variable slope, four parameter curve fit (Log transform) using GraphPad Prism software to determine EC50 values.

[2] = molecular target: T2, mSTING (Mus musculus, UniProt Q3TBT3); assay: ISG reporter induction in 293-Dual mSTING reporter cells (QUANTI-Blue); format: cell-based; details: 293-Dual mSTING cells, overnight incubation
T2 construct: host or cells: 293-Dual (HEK293-derived) reporter cells
T2 sequence (Q3TBT3 1-378): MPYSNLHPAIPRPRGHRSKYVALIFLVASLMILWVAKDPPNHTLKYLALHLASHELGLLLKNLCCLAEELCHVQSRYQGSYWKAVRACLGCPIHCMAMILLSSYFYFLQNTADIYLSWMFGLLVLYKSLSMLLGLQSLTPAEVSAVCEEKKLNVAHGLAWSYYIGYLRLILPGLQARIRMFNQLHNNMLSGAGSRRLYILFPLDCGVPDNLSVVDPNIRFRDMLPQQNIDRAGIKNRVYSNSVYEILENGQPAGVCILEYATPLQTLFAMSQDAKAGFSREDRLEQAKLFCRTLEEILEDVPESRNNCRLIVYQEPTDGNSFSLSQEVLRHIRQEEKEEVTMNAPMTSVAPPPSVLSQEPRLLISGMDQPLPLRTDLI
Method: as §1, §2

T1 sequence (Q86WV6 whole entry H232R): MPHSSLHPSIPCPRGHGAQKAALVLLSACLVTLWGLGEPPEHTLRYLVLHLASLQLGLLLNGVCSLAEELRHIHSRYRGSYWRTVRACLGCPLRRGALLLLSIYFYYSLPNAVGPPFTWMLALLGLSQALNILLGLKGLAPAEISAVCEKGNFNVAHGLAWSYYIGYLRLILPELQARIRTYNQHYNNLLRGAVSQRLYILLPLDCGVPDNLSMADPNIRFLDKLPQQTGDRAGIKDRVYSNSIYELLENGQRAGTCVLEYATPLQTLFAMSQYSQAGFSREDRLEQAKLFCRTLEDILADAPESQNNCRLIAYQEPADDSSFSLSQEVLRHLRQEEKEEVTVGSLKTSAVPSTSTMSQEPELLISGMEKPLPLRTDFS

EC50 [1] [nM] | EC50 [2] [nM] | SMILES
> 150 | > 150 | COc1cc2sc(C(=O)CC(C)(C)C(=O)O)cc2c(F)c1OCCCOc1c(OC)cc2sc(C(=O)CC(C)(C)P(=O)(O)O)cc2c1F [Compound 9, 4-(4-Fluoro-5-(3-((4-fluoro-6-methoxy-2-(3-methyl-3-phosphonobutanoyl)benzo[b]thiophen-5-yl)oxy)propoxy)-6-methoxybenzo[b]thiophen-2-yl)-2,2-dimethyl-4-oxobutanoic acid]
≤ 50 | ≤ 50 | COc1cc2sc(/C=C/CC(=O)O)cc2c(F)c1OCCCOc1c(OC)cc2sc(C(=O)CC(C)(C)C(=O)O)cc2c1F [Compound 11, (E)-4-(5-(3-((2-(3-carboxy-3-methylbutanoyl)-4-fluoro-6-methoxybenzo[b]thiophen-5-yl)oxy)propoxy)-4-fluoro-6-methoxybenzo[b]thiophen-2-yl)but-3-enoic acid]
> 150 | 50 to 150 | COc1cc2sc(C(=O)CC(C)(C)C(=O)O)cc2c(F)c1OCCCOc1c(OC)cc2sc(C3CC3CC(=O)O)cc2c1F (stereo not drawn) [Compound 12, 4-(5-(3-((2-(2-(carboxymethyl)cyclopropyl)-4-fluoro-6-methoxybenzo[b]thiophen-5-yl)oxy)propoxy)-4-fluoro-6-methoxybenzo[b]thiophen-2-yl)-2,2-dimethyl-4-oxobutanoic acid]
> 150 | ≤ 50 | COc1cc2sc(C(=O)CCS(=O)(=O)O)cc2c(F)c1OCCCOc1c(OC)cc2sc(C(=O)CC(C)(C)C(=O)O)cc2c1F [Compound 14, 4-(4-fluoro-5-(3-((4-fluoro-6-methoxy-2-(3-sulfopropanoyl)benzo[b]thiophen-5-yl)oxy)propoxy)-6-methoxybenzo[b]thiophen-2-yl)-2,2-dimethyl-4-oxobutanoic acid]
> 150 | > 150 | COc1cc2sc(CCP(=O)(O)O)cc2c(F)c1OCCCOc1c(OC)cc2sc(C(=O)CC(C)(C)C(=O)O)cc2c1F [Compound 19]
≤ 50 | ≤ 50 | COc1cc2sc(C(=O)CCC(=O)O)cc2c(F)c1OCCCOc1c(OC)cc2sc(C(=O)CP(=O)(O)O)cc2c1F [Compound 20]
> 150 | ≤ 50 | COc1cc2sc(C(=O)CCP(=O)(O)O)cc2c(F)c1OCCCOc1c(OC)cc2sc(C(=O)CC(C)(C)C(=O)O)cc2c1F [Compound 21]

The next lines start with the compound.

SMILES | EC50 [1] [nM] | EC50 [2] [nM]
COC(=O)C(C)(C)CC(=O)c1cc2c(F)c(OCCCOc3c(OC)cc4sc(C(=O)CS(=O)(=O)O)cc4c3F)c(OC)cc2s1 [Compound 2, 2-(4-Fluoro-5-(3-((4-fluoro-6-methoxy-2-(4-methoxy-3,3-dimethyl-4-oxobutanoyl)benzo[b]thiophen-5-yl)oxy)propoxy)-6-methoxybenzo[b]thiophen-2-yl)-2-oxoethane-1-sulfonic acid] | > 150 | 50 to 150
COC(=O)C(C)(C)CC(=O)c1cc2c(F)c(OCCCOc3c(OC)cc4sc(C(=O)CP(=O)(OC)OC)cc4c3F)c(OC)cc2s1 [Compound 3, Methyl 4-(5-(3-((2-(2-(dimethoxyphosphoryl)acetyl)-4-fluoro-6-methoxybenzo[b]thiophen-5-yl)oxy)propoxy)-4-fluoro-6-methoxybenzo[b]thiophen-2-yl)-2,2-dimethyl-4-oxobutanoate] | > 150 | > 150
COc1cc2sc(C(=O)CC(C)(C)C(=O)O)cc2c(F)c1OCCCOc1c(OC)cc2sc(C(=O)CP(=O)(OC)OC)cc2c1F [Compound 4, 4-(5-(3-((2-(2-(Dimethoxyphosphoryl)acetyl)-4-fluoro-6-methoxybenzo[b]thiophen-5-yl)oxy)propoxy)-4-fluoro-6-methoxybenzo[b]thiophen-2-yl)-2,2-dimethyl-4-oxobutanoic acid] | > 150 | 50 to 150
COC(=O)C(C)(C)CC(=O)c1cc2c(F)c(OCCCOc3c(OC)cc4sc(C(=O)CC(C)(C)P(=O)(O)O)cc4c3F)c(OC)cc2s1 [Compound 10] | > 150 | > 150
COc1cc2sc(C(=O)CC(C)(C)C(=O)O)cc2c(F)c1OCCCOc1ccc2cc(C(=O)CCC(=O)O)ccc2c1 [Compound 13, 4-(5-(3-((6-(3-Carboxypropanoyl)naphthalen-2-yl)oxy)propoxy)-4-fluoro-6-methoxybenzo[b]thiophen-2-yl)-2,2-dimethyl-4-oxobutanoic acid] | 50 to 150 | 50 to 150
COc1cc2sc(C(=O)CC(C)(C)C(=O)O)cc2c(F)c1OCCCOc1ccc2cc(C(=O)CCC(=O)O)ccc2c1F [Compound 15, 4-(5-(3-((6-(3-Carboxypropanoyl)-1-fluoronaphthalen-2-yl)oxy)propoxy)-4-fluoro-6-methoxybenzo[b]thiophen-2-yl)-2,2-dimethyl-4-oxobutanoic acid] | > 150 | > 150
COc1cc2cc(C(=O)CCC(=O)O)ccc2c(F)c1OCCCOc1c(OC)cc2sc(C(=O)CC(C)(C)C(=O)O)cc2c1F [Compound 16, 4-(5-(3-((6-(3-Carboxypropanoyl)-1-fluoro-3-methoxynaphthalen-2-yl)oxy)propoxy)-4-fluoro-6-methoxybenzo[b]thiophen-2-yl)-2,2-dimethyl-4-oxobutanoic acid] | > 150 | > 150
COc1cc2sc(C(=O)CC(C)(C)C(=O)O)cc2c(F)c1OCCCOc1c(OC)cc2sc(C(=O)CC(C)(C)C(=O)NS(=O)(=O)CCN)cc2c1F [Compound 17, 4-(5-(3-((2-(4-((2-Aminoethyl)sulfonamido)-3,3-dimethyl-4-oxobutanoyl)-4-fluoro-6-methoxybenzo[b]thiophen-5-yl)oxy)propoxy)-4-fluoro-6-methoxybenzo[b]thiophen-2-yl)-2,2-dimethyl-4-oxobutanoic acid] | > 150 | > 150
COc1cc2sc(C(=O)CC(C)(C)C(=O)O)cc2c(F)c1OCCCOc1c(OC)cc2sc(C(=O)CC(C)(C)C(=O)NCCN)cc2c1F [Compound 18] | > 150 | > 150
COc1cc2cc(C(=O)CCC(=O)O)ccc2cc1OCCCOc1c(OC)cc2sc(C(=O)CC(C)(C)C(=O)O)cc2c1F [Compound 22] | > 150 | > 150
COc1cc2nc(C(=O)CCC(=O)O)ccc2c(F)c1OCCCOc1c(OC)cc2sc(C(=O)CC(C)(C)C(=O)O)cc2c1F [Compound 23, 4-(5-(3-((2-(3-Carboxypropanoyl)-5-fluoro-7-methoxyquinolin-6-yl)oxy)propoxy)-4-fluoro-6-methoxybenzo[b]thiophen-2-yl)-2,2-dimethyl-4-oxobutanoic acid] | ≤ 50 | ≤ 50
COc1cc2sc(/C=C/CC(=O)O)cc2c(F)c1OCCCOc1c(OC)cc2sc(C(=O)CP(=O)(O)O)cc2c1F [Compound 32] | 50 to 150 | > 150
COc1cc2sc(/C=C/CC(=O)O)cc2c(F)c1OCCCOc1c(OC)cc2sc(/C=C/CC(=O)O)cc2c1F [Compound 33] | > 150 | > 150
COc1cc2sc(C(=O)CC(C)(C)C(=O)O)cc2c(C)c1OCCCOc1c(OC)cc2sc(C(=O)CP(=O)(O)O)cc2c1C [Compound 34] | > 150 | > 150
